From patent US12252491B2, “IL-17A inhibitors” (Eli Lilly and Company, priority 2019, dated 2025)

Experiments:
[1] = target: binding of IL-17A to IL-17RA (Homo sapiens (Human), UniProt Q16552); experiment: IL-17A:IL-17RA AlphaLISA
Procedure: The ability of compounds to inhibit the binding of IL-17A to IL-17RA may be assessed with an AlphaLISA assay.
To assay the compounds of the present invention, 0.1 μL of a test compound stock is serially diluted in 100% DMSO using an Echo Acoustic Liquid Handler (LabCyte Sunnydale, Calif.) in 384 well proxiplates (Perkin Elmer). A 5 μL addition of IL-17RA-FLAG is added to the plate, followed by the addition of 5 μL Avi-tagged IL-17A-His to provide a final concentration of 2 nM of IL-17RA and IL-17A, respectively. The assay is carried out in 20 mM HEPES, 150 mM NaCl, 0.05% Tween-20, 0.1% Human Serum Albumin, pH 7 and 1% DMSO. The assay mixture is allowed to incubate at room temperature for 2 hours. After the 2 hour incubation, 10 μL of streptavidin donor beads (20 μg/ml final) and anti-FLAG acceptor beads (20 μg/ml final) are added to the plate. The plate is allowed to incubate for one hour at room temp, then is read on the Envision (Perkin Elmer). The relative IC50 values are determined using a four parameter fit as shown in equation 1. In this equation, bottom and top are defined as the plateaus of the curve, and H is the Hill Slope.

[2] = Mouse oral bioavailability; type: in vivo; settings: whole blood (dried blood spot), male mice, IV bolus 1 mg/kg vs oral 3 mg/kg, 8-hour AUC, read-out: % F (mouse)
Procedure: Oral bioavailability (% F) for compounds of the invention may be determined in mice by determination of an 8-hour blood plasma AUC (nM*hr) following intravenous and oral administration performed essentially as follows. Male mice (n=3) are administered compound via intravenous (IV) bolus (1 mg/kg) or orally (3 mg/kg). For intravenous administration, a vehicle of 20% w/v capsitol in NaPO4 buffer (25 mM) adjusted to pH 2 in a volume of 5 mL/kg is used. For oral administration, a vehicle of HEC/P80/AF/PW (probe sonicated to afford a homogeneous suspension) in a volume of 10 mL/kg is used. Blood is sampled by saphenous bleeding using K2 EDTA as anticoagulant. Approximately 20 μL of blood (or enough for 1 spot) is collected via a capillary tube and transferred to a card as a dry blood spot. Cards are allowed to dry for at least 2 hours before shipping for analysis. Blood concentration of compounds for each mouse is measured by liquid chromatography/tandem mass spectrometry at time points of 0.08 (IV only), 0.25, 0.5, 0.75, 2, 4, and 8 hours. Oral bioavailability (% F) is determined via the following equation: [% F=(AUC/Dose)PO/(AUC/Dose)IV].

human IL-17A = human IL-17A (Homo sapiens (Human), UniProt Q16552)
human IL-17A, sequence (Q16552 20-155): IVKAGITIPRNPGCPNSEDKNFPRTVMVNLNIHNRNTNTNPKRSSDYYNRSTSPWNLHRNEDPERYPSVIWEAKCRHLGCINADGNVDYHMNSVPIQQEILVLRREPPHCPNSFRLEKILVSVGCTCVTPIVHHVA
Procedure: The ability of compounds to neutralize the activity of IL-17A may be assessed with a cell-based human IL-17A neutralization assay conducted essentially as follows. […] After 48 hours, CXCL1/GROα in the culture media is measured using a commercial ELISA kit (#DY275; R&D Systems). Medium alone treatments are included in every experiment to assess the basal levels of CXCL1/GROα. Percent inhibition is calculated using the following equation:

binding of IL-17A to IL-17RA, sequence (Q16552 other isoform, or with tags, fused parts or gaps): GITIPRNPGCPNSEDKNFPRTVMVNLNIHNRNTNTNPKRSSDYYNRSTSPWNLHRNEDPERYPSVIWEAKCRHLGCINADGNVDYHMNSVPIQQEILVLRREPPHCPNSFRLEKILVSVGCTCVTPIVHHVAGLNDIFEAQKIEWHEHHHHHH

In the case of `Cc1nonc1C(=O)N[C@H](c1cn2ncc(CN3C[C@@H](C(F)(F)F)NC3=O)cc2n1)C1CCC(F)(F)CC1` [Example 6, N—[(S)-(4,4-Difluorocyclohexyl)-[7-[[(4S)-2-oxo-4-(trifluoromethyl)imidazolidin-1-yl]methyl]imidazo[1,2-b]pyridazin-2-yl]methyl]-4-methyl-1,2,5-oxadiazole-3-carboxamide], the IC50 [1] is reported as < 0.00945 µM, the bioavailability [2] is reported as 75% and the IC50 (human IL-17A) is reported as 0.0942 µM.

Compound `COc1nonc1C(=O)N[C@H](c1cn2ncc(CN3C[C@@H](C(F)(F)F)NC3=O)cc2n1)C1CCC(F)(F)CC1` [Example 22, N—[(S)-(4,4-Difluorocyclohexyl)-[7-[[(4S)-2-oxo-4-(trifluoromethyl)imidazolidin-1-yl]methyl]imidazo[1,2-b]pyridazin-2-yl]methyl]-4-methoxy-1,2,5-oxadiazole-3-carboxamide] has an IC50 [1] of 0.0114 µM and an IC50 (human IL-17A) of 0.0834 µM.

`O=C(N[C@H](c1cn2ncc(CN3C[C@@H](C(F)(F)F)NC3=O)cc2n1)C1CCC(F)(F)CC1)c1conc1C(F)F` [Example 4, N—[(S)-(4,4-Difluorocyclohexyl)-[7-[[(4S)-2-oxo-4-(trifluoromethyl)imidazolidin-1-yl]methyl]imidazo[1,2-b]pyridazin-2-yl]methyl]-3-(difluoromethyl)isoxazole-4-carboxamide] showed an IC50 [1] of 0.013 ± 0.002 µM, a bioavailability [2] of 59% and an IC50 (human IL-17A) of 0.0937 µM.

`O=C(N[C@H](c1cn2ncc(CN3C[C@@H](C(F)(F)F)NC3=O)cc2n1)C1CCC(F)(F)CC1)c1conc1C1(F)CC1` [Example 12, N—[(S)-(4,4-Difluorocyclohexyl)-[7-[[(4S)-2-oxo-4-(trifluoromethyl)imidazolidin-1-yl]methyl]imidazo[1,2-b]pyridazin-2-yl]methyl]-3-(1-fluorocyclopropyl)isoxazole-4-carboxamide] showed an IC50 [1] of 0.0181 µM and an IC50 (human IL-17A) of 0.107 µM.

Compound `O=C(N[C@H](c1cn2ncc(CN3C[C@@H](C(F)(F)F)NC3=O)cc2n1)C1CCC(F)(F)CC1)c1conc1CC(F)F` [Example 8, N—[(S)-(4,4-Difluorocyclohexyl)-[7-[[(4S)-2-oxo-4-(trifluoromethyl)imidazolidin-1-yl]methyl]imidazo[1,2-b]pyridazin-2-yl]methyl]-3-(2,2-difluoroethyl)isoxazole-4-carboxamide] has an IC50 [1] of 0.0155 µM and an IC50 (human IL-17A) of 0.0524 µM.

`Cc1nocc1C(=O)N[C@H](c1cn2ncc(CN3C[C@@H](C(F)(F)F)NC3=O)cc2n1)C1CCC(F)(F)CC1` [Example 3, N—[(S)-(4,4-Difluorocyclohexyl)-[7-[[(4S)-2-oxo-4-(trifluoromethyl)imidazolidin-1-yl]methyl]imidazo[1,2-b]pyridazin-2-yl]methyl]-3-methyl-isoxazole-4-carboxamide] showed an IC50 [1] of 0.0277 ± 0.0024 µM, a bioavailability [2] of 35% and an IC50 (human IL-17A) of 0.127 µM.

For `O=C(N[C@H](c1cn2ncc(CN3C[C@@H](C(F)(F)F)NC3=O)cc2n1)C1CCC(F)(F)CC1)c1conc1CCF` [Example 9, N—[(S)-(4,4-Difluorocyclohexyl)-[7-[[(4S)-2-oxo-4-(trifluoromethyl)imidazolidin-1-yl]methyl]imidazo[1,2-b]pyridazin-2-yl]methyl]-3-(2-fluoroethyl)isoxazole-4-carboxamide], the IC50 [1] was 0.0106 µM, the bioavailability [2] was 12% and the IC50 (human IL-17A) was 0.0465 µM.

For `CC(C)c1nocc1C(=O)N[C@H](c1cn2ncc(CN3C[C@@H](C(F)(F)F)NC3=O)cc2n1)C1CCC(F)(F)CC1` [Example 16, N—[(S)-(4,4-Difluorocyclohexyl)-[7-[[(4S)-2-oxo-4-(trifluoromethyl)imidazolidin-1-yl]methyl]imidazo[1,2-b]pyridazin-2-yl]methyl]-3-isopropyl-isoxazole-4-carboxamide], the IC50 [1] was 0.0193 µM and the IC50 (human IL-17A) was 0.0108 µM.

For `COC[C@H](c1cnn2cc([C@@H](NC(=O)c3nonc3C)C3CCC(F)(F)CC3)nc2c1)N1C[C@@H](C(F)(F)F)NC1=O` [Example 24, N—[(S)-(4,4-Difluorocyclohexyl)-[7-[(1S)-2-methoxy-1-[(4S)-2-oxo-4-(trifluoromethyl)imidazolidin-1-yl]ethyl]imidazo[1,2-b]pyridazin-2-yl]methyl]-4-methyl-1,2,5-oxadiazole-3-carboxamide], the IC50 [1] was < 0.00945 µM, the bioavailability [2] was 107% and the IC50 (human IL-17A) was 0.0093 ± 0.006 µM.

Compound `O=C(N[C@H](c1cn2ncc(CN3C[C@@H](C(F)(F)F)NC3=O)cc2n1)C1CCC(F)(F)CC1)c1conc1C1CC(F)(F)C1` [Example 10, 3-(3,3-Difluorocyclobutyl)-N—[(S)-(4,4-difluorocyclohexyl)-[7-[[(4S)-2-oxo-4-(trifluoromethyl)imidazolidin-1-yl]methyl]imidazo[1,2-b]pyridazin-2-yl]methyl]isoxazole-4-carboxamide] has an IC50 [1] of 0.047 µM and an IC50 (human IL-17A) of 0.0489 µM.

Compound `O=C(N[C@H](c1cn2ncc(CN3C[C@@H](C(F)(F)F)NC3=O)cc2n1)C1CCC(F)(F)CC1)c1conc1CF` [Example 7, N—[(S)-(4,4-Difluorocyclohexyl)-[7-[[(4S)-2-oxo-4-(trifluoromethyl)imidazolidin-1-yl]methyl]imidazo[1,2-b]pyridazin-2-yl]methyl]-3-(fluoromethyl)isoxazole-4-carboxamide] has an IC50 [1] of 0.0378 µM, a bioavailability [2] of 47% and an IC50 (human IL-17A) of 0.128 µM.

`CC1(c2nocc2C(=O)N[C@H](c2cn3ncc(CN4C[C@@H](C(F)(F)F)NC4=O)cc3n2)C2CCC(F)(F)CC2)CC1` [Example 14, N—[(S)-(4,4-Difluorocyclohexyl)-[7-[[(4S)-2-oxo-4-(trifluoromethyl)imidazolidin-1-yl]methyl]imidazo[1,2-b]pyridazin-2-yl]methyl]-3-(1-methylcyclopropyl)isoxazole-4-carboxamide] showed an IC50 [1] of 0.0361 µM and an IC50 (human IL-17A) of 0.0333 µM.

In the case of `O=C(N[C@H](c1cn2ncc(CN3C[C@@H](C(F)(F)F)NC3=O)cc2n1)C1CCC(F)(F)CC1)c1nonc1CC(F)(F)F` [Example 23, N—[(S)-(4,4-difluorocyclohexyl)-[7-[[(4S)-2-oxo-4-(trifluoromethyl)imidazolidin-1-yl]methyl]imidazo[1,2-b]pyridazin-2-yl]methyl]-4-(2,2,2-trifluoroethyl)-1,2,5-oxadiazole-3-carboxamide], the IC50 [1] is reported as < 0.00945 µM and the IC50 (human IL-17A) is reported as 0.0149 µM.

`CC(F)(F)c1nocc1C(=O)N[C@H](c1cn2ncc(CN3C[C@@H](C(F)(F)F)NC3=O)cc2n1)C1CCC(F)(F)CC1` [Example 5, N—[(S)-(4,4-Difluorocyclohexyl)-[7-[[(4S)-2-oxo-4-(trifluoromethyl)imidazolidin-1-yl]methyl]imidazo[1,2-b]pyridazin-2-yl]methyl]-3-(1,1-difluoroethyl)isoxazole-4-carboxamide] gave an IC50 [1] of 0.02 µM, a bioavailability [2] of 49% and an IC50 (human IL-17A) of 0.104 µM.

For `O=C(N[C@H](c1cn2ncc(CN3C[C@@H](C(F)(F)F)NC3=O)cc2n1)C1CCC(F)(F)CC1)c1conc1C(F)(F)C1CC1` [Example 13, 3-[Cyclopropyl(difluoro)methyl]-N—[(S)-(4,4-difluorocyclohexyl)-[7-[[(4S)-2-oxo-4-(trifluoromethyl)imidazolidin-1-yl]methyl]imidazo[1,2-b]pyridazin-2-yl]methyl]isoxazole-4-carboxamide], the IC50 [1] was 0.0471 µM and the IC50 (human IL-17A) was 0.0531 µM.

Compound `O=C(N[C@H](c1cn2ncc(CN3C[C@@H](C(F)(F)F)NC3=O)cc2n1)C1CCC(F)(F)CC1)c1nonc1C1CC1` [Example 19, 4-Cyclopropyl-N—[(S)-(4,4-difluorocyclohexyl)-[7-[[(4S)-2-oxo-4-(trifluoromethyl)imidazolidin-1-yl]methyl]imidazo[1,2-b]pyridazin-2-yl]methyl]-1,2,5-oxadiazole-3-carboxamide] has a bioavailability [2] of 47%.

With `O=C(N[C@H](c1cn2ncc(CN3C[C@@H](C(F)(F)F)NC3=O)cc2n1)C1CCC(F)(F)CC1)c1nonc1C(F)F` [Example 18, N—[(S)-(4,4-Difluorocyclohexyl)-[7-[[(4S)-2-oxo-4-(trifluoromethyl)imidazolidin-1-yl]methyl]imidazo[1,2-b]pyridazin-2-yl]methyl]-4-(difluoromethyl)-1,2,5-oxadiazole-3-carboxamide] the IC50 [1] was < 0.00945 µM and the IC50 (human IL-17A) was 0.0227 µM.

`CC(C)(F)c1nocc1C(=O)N[C@H](c1cn2ncc(CN3C[C@@H](C(F)(F)F)NC3=O)cc2n1)C1CCC(F)(F)CC1` [Example 15, N—[(S)-(4,4-Difluorocyclohexyl)-[7-[[(4S)-2-oxo-4-(trifluoromethyl)imidazolidin-1-yl]methyl]imidazo[1,2-b]pyridazin-2-yl]methyl]-3-(1-fluoro-1-methyl-ethyl)isoxazole-4-carboxamide] gave an IC50 [1] of 0.0519 µM and an IC50 (human IL-17A) of 0.0829 µM.

In the case of `CCc1nonc1C(=O)N[C@H](c1cn2ncc(CN3C[C@@H](C(F)(F)F)NC3=O)cc2n1)C1CCC(F)(F)CC1` [Example 17, N—[(S)-(4,4-Difluorocyclohexyl)-[7-[[(4S)-2-oxo-4-(trifluoromethyl)imidazolidin-1-yl]methyl]imidazo[1,2-b]pyridazin-2-yl]methyl]-4-ethyl-1,2,5-oxadiazole-3-carboxamide], the IC50 [1] is reported as < 0.00945 µM and the IC50 (human IL-17A) is reported as 0.0159 µM.
